The results in this text go back to US11472830B2, “Cyclic dinucleotides as sting agonists” (Janssen Biotech, Inc., priority 2016, dated 2022).

Assay [1] has as its system human STING pathway in THP1-ISG cells. In words: STING human cell reporter assay. The class given is cell-based. The conditions noted are these: 24 h, mean of at least three values. On the procedure: STING Human Cell Reporter Assay
Agonism of the human STING pathway is assessed in THP1-ISG cells (Invivogen, cat #thp-isg) derived from human THP1 monocyte cell line by stable integration of an interferon regulatory factor (IRF)-inducible SEAP reporter construct. THP1-Blue ISG cells express a secreted embryonic alkaline phosphatase (SEAP) reporter gene under the control of an ISG54 minimal promoter in conjunction with five interferon (IFN)-stimulated response elements. As a result, THP1-Blue ISG cells allow the monitoring of IRF activation by determining the activity of SEAP. The levels of IRF-induced SEAP in the cell culture supernatant are readily assessed with alkaline phosphatase detection medium, a SEAP detection reagent. These cells are resistant to Zeocin. […] To run the assay, 60,000 cells were dispensed in 30 μL/well of a white, opaque bottom tissue culture treated 384-well plate.
Test compounds were added in a volume of 10 μL (1% DMSO final concentration). Compounds are initially prepared in 100% DMSO, spotted on an intermediate dilution plate and then diluted in media prior to transfer. The assay was incubated for 24 h at 37 °C, 5% CO2 then plates were centrifuged at 1200 rpm (120× g) for 5 min. After final incubation, 90 μL of alkaline phosphatase detection medium-substrate was added to each well of a new 384-well clear plate and 10 μL of the cell supernatant was transferred from the assay plate to the new alkaline phosphatase detection medium-plate using a Biomek FX and mixed 4 times.

Assay [2] has as its system IFN-β secretion in THP1-Blue ISG cells. In words: Human interferon-β induction assay. The class given is cell-based. The conditions noted are these: total cumulative IFN-β induction over the dose range tested (0.78 to 50 uM) in THP-1 cells. How it is done:
Human Interferon-β Induction Assay
THP1-Blue ISG cells are used to measure the secretion of IFN-β into the culture supernatant following STING pathway activation. To run the assay, anti-IFN-β capture antibodies were coated on 96 well MultiArray plates (Mesoscale Discovery). After a one hour incubation, plates were washed and 50 μL supernatant from the STING human cell reporter assay plates or IFN-β standards were mixed with 20 μL Sulfotag-conjugated detection antibody in the coated plates. Plates were incubated, shaking for 2 h, washed, and read buffer was applied. Electrochemiluminescence was measured on the Sectorlmager.

Assay [3] concerns CT26 colon carcinoma tumor. In words: STING in vivo activity, mouse CT26 tumor model. The conditions noted are these: CT26 tumor in Balb/c mice, 0.05 mg intratumorally every three days, three doses; for In vivo activity (cures): animals with no measurable tumor of 8. On the procedure: For all studies, female Balb/c mice were obtained from Charles River Labs (Wilmington, Mass.) and used when they were 6-8 weeks of age and weighed approximately 20 g. All animals were allowed to acclimate and recover from any shipping-related stress for a minimum of 5 days prior to experimental use. Reverse osmosis chlorinated water and irradiated food (Laboratory Autoclavable Rodent Diet 5010, Lab Diet) were provided ad libitum, and the animals were maintained on a 12 h light and dark cycle. Cages and bedding were autoclaved before use and changed weekly. All experiments were carried out in accordance with The Guide for the Care and Use of Laboratory Animals and were approved by the Institutional Animal Care and Use Committee of Janssen R & D, Spring House, Pa. Each experimental group contained 8 mice. In vivo efficacy in a mouse CT26 tumor model was determined by implanting 500,000 CT26 colon carcinoma tumor cells subcutaneously into Balb/c mice and allowing tumors to establish to 100-300 mm^3. Compounds were injected intratumorally formulated in phosphate buffered saline in a volume of 0.1 ml per injection. Mice were administered 0.05 mg every three days for a total of three doses. Efficacy was measured as the percent tumor growth inhibition (TGI) calculated by the reduction in size of the Treated tumor volume (T) over the Control tumor volume (C) according to the following formula: ((C−T)/(C))*100 when all control animals were still on study. Cures were defined as the number of animals with no measurable tumor detected 10 tumor volume doubling times (TVDT) after the last dose was administered.

Assay [4] relates to HBV infected PHH cells. Kind of assay: Suppression of HBV virus in PHH cells using conditioned media from STING activated primary human PBMC. The assay is classed as cell-based, hepatitis B virus. As to conditions: conditioned media from PBMCs stimulated at 20, 4, 0.8 μM for 48 h, 1:1 on HBV infected PHH cells; HBsAg 8 days later; two donors; read-out: EC50 (HBsAg production). The source says: Suppression of HBV Virus in PHH Cells Using Conditioned Media from STING Activated Primary Human PBMC
Primary human hepatocytes can be infected with hepatitis B virus and during an established infection, will produce viral proteins such as HBsAg and HBeAg that can be detected by ELISA. Therapeutic treatment with compounds such as entecavir can suppress HBV reproduction, which can be measured by decreased viral protein production. (# of cells) 4×10^5 cells/well primary human hepatocytes (BioReclamation, Westbury, N.Y.) were dispensed into 500 μL/well of flat-bottom, tissue culture treated, 24-well plates. 24 h later, cells were infected with 30-75 moi of HBV. On the next day, the PHH were washed 3× and fresh maintenance media was added to the cells. Concurrently, PBMC were isolated as described previously. To stimulate the PBMC, 10,000,000 cells were dispensed into 400 μL/well of flat-bottom, tissue culture treated, 24-well plates. […] Cells were measured for activation marker upregulation using flow cytometery. […] Samples were analyzed on an Attune NxT flow cytometer (Thermo Fisher, Carlsbad, Calif.)
From the stimulated PBMC cultures, a portion of supernatant was reserved for cytokine detection by Luminex, as described previously. […] Following 96 h, the media was collected and HBsAg was measured.

Assay [5] addresses STING (Homo sapiens, UniProt Q86WV6, H232R). Kind of assay: STING SPA binding assay. The conditions noted are these: displacement of [3H]-2′3′-cGAMP; mean of at least three values; read-out: hSTING SPA IC50. How it is done:
The HIS tag is cleaved after purification and prior to biotinylation.
Test compounds (80 nL) were added with an acoustic dispenser (EDC Biosystems) in 100% DMSO for a final assay concentration of 1% DMSO. Plates were centrifuged for 1 min and incubated for 60 min at room temperature. Finally, (2 μL) polystyrene streptavidin SPA beads (PerkinElmer RPNQ0306) were added and plates were sealed and centrifuged for 1 min at room temperature. Plates were dark adapted for 2 h and read on a ViewLux (Perkin Elmer) for 12 min per plate.

Molecules are shown by their SMILES.

Sequence of STING (Q86WV6 139-379 H232R): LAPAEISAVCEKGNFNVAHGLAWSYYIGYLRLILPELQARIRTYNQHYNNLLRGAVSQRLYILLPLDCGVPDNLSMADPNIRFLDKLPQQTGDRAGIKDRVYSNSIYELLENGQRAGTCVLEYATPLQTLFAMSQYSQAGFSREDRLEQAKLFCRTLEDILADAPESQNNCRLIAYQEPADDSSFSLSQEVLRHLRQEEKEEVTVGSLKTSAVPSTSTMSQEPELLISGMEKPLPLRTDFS

`Nc1nc2c(ncn2C2OC3CO[P@@](=O)(S)OC4C(CO[P@@](=O)(S)OC2C3O)OC(n2cnc3c(N)ncnc32)C4F)c(=O)[nH]1` (single isomer, unassigned) [Compound 4] had an EC50 in assay [1] of 90 nM. In addition, in assay [2], the “human IFN-β (ranking value)” value is on record as 2247. In assay [3], the “In vivo activity (% TGI)” value worked out at 93.7% and the “In vivo activity (cures)” value is reported as 6/8.

In assay [1], `Nc1nc2c(ncn2C2OC3CO[P@](=O)(S)OC4C(CO[P@](=O)(S)OC2C3O)OC(n2cnc3c(N)ncnc32)C4F)c(=O)[nH]1` (single isomer, unassigned) [Compound 5] gave an EC50 of 160 nM. Further, the “human IFN-β (ranking value)” value in assay [2] was determined as 2737. Besides, in assay [3], the “In vivo activity (% TGI)” value was 93.3% and the “In vivo activity (cures)” value is 7/8.

In the case of `B[P@]1(=O)OCC2OC(n3cnc4c(=O)[nH]c(N)nc43)C(O[P@@](B)(=O)OCC3OC(n4cnc5c(N)ncnc54)C(O)C3O1)C2O` (single isomer, unassigned) [Compound 7], the EC50 in assay [1] turned out to be 1120 nM. Moreover, the EC50 in assay [4] is 0.0851 nM. The “human IFN-β (ranking value)” value in assay [2] is given as 2260. In addition, in assay [3], the “In vivo activity (% TGI)” value was 94.3% and the “In vivo activity (cures)” value is on record as 5/8.

`B[P@@]1(=O)OCC2OC(n3cnc4c(=O)[nH]c(N)nc43)C(O[P@](B)(=O)OCC3OC(n4cnc5c(N)ncnc54)C(O)C3O1)C2O` (single isomer, unassigned) [Compound 8] registered an EC50 in assay [1] of 110 nM. In addition, the “human IFN-β (ranking value)” value in assay [2] stood at 2054. In assay [3], the “In vivo activity (% TGI)” value was determined as 95.3% and the “In vivo activity (cures)” value is on record as 4/8.

In assay [1], `B[P@@]1(=O)OCC2OC(n3cnc4c(=O)[nH]c(N)nc43)C(O[P@](=O)(S)OCC3OC(n4cnc5c(N)ncnc54)C(F)C3O1)C2OC` (single isomer, unassigned) [Compound 9] yielded an EC50 of 640 nM. In assay [2], the “human IFN-β (ranking value)” value was 2240. The “In vivo activity (% TGI)” value in assay [3] was determined as 89.8%.

In assay [1], `B[P@]1(=O)OCC2OC(n3cnc4c(=O)[nH]c(N)nc43)C(O[P@](=O)(S)OCC3OC(n4cnc5c(N)ncnc54)C(F)C3O1)C2OC` (single isomer, unassigned) [Compound 10] gave an EC50 of 540 nM. The “human IFN-β (ranking value)” value in assay [2] is recorded as 1321.

The compound `B[P@@]1(=O)OCC2OC(n3cnc4c(=O)[nH]c(N)nc43)C(O[P@](B)(=O)OCC3OC(n4cnc5c(N)ncnc54)C(F)C3O1)C2OC` (single isomer, unassigned) [Compound 11] registered an EC50 in assay [1] of 490 nM. For the same compound, in assay [5], the IC50 is less than 10 nM. The “human IFN-β (ranking value)” value in assay [2] was found to be 3840.

Compound `B[P@]1(=O)OCC2OC(n3cnc4c(=O)[nH]c(N)nc43)C(O[P@@](B)(=O)OCC3OC(n4cnc5c(N)ncnc54)C(F)C3O1)C2OC` (single isomer, unassigned) [Compound 12] registered an EC50 in assay [1] of 220 nM. In addition, in assay [5], the IC50 was less than 10 nM. For the same compound, the “human IFN-β (ranking value)” value in assay [2] stood at 3860.

Take `B[P@@]1(=O)OCC2OC(n3cnc4c(N)ncnc43)C(F)C2O[P@](=O)(S)OCC2OC(n3cnc4c(=O)[nH]c(N)nc43)C(O1)C2OC` (single isomer, unassigned) [Compound 13]: the EC50 in assay [1] was 590 nM. In addition, in assay [2], the “human IFN-β (ranking value)” value is 2900.

Regarding `B[P@]1(=O)OCC2OC(n3cnc4c(N)ncnc43)C(F)C2O[P@@](=O)(S)OCC2OC(n3cnc4c(=O)[nH]c(N)nc43)C(O1)C2OC` (single isomer, unassigned) [Compound 14], the midpoint of the response in assay [1], the EC50, lay at 450 nM. The “human IFN-β (ranking value)” value in assay [2] is 4964.

`Nc1nc2c(ncn2C2OC3COP(=O)(O)OC4C5OCC4(COP(=O)(O)OC2C3O)OC5n2cnc3c(N)ncnc32)c(=O)[nH]1` (stereo not drawn) [Compound 6] registered an EC50 in assay [1] of 120 nM. Also, the “human IFN-β (ranking value)” value in assay [2] was found to be 27. In assay [3], the “In vivo activity (% TGI)” value is reported as 73.9% and the “In vivo activity (cures)” value is 1/8.
